The text below walks through data of patent publication US8785388B2, “TAT-BH3 methods for treating arthritis” (Saint Louis University, priority 2007, dated 2014).

In series [1] the test system is IL-1β, TNFα, MCP-1, KC, MMP-3. The series is described as follows: ELISA of pro-inflammatory molecules in ankle extracts. The conditions noted are these: ankle joints. In kind it is in vivo, mouse. On the set-up: IL-1β / TNFα / MCP-1 / KC / MMP-3: unit not given here. Here is the method: (§1) At each time point and prior to euthanasia, the degree of arthritis as indicated by joint swelling was quantitated by measuring two perpendicular diameters of the ankles using a caliper (Lange Caliper: Cambridge Scientific Industries, Cambridge Mass.). Joint circumference was calculated using the geometric formula of ellipse circumference (2πX √(a^2+b^2)/2). Following euthanasia, serum was isolated from peripheral blood by cardiac stick and ankle joints were removed. One of the ankle joints was fixed in 10% neutral buffered formalin for 24 hours, decalcified in EDTA-decalcification buffer for two weeks, embedded in paraffin, and sectioned. The other ankle joint was placed in liquid nitrogen, grounded into a fine powder by mortal and pestle, digested in protein lysis buffer ([…], 0.5% NP-40, 50 mM Tris, and 2 mM EDTA) in the presence of phosphatase and protease inhibitors, and homogenized on ice for 20 seconds. To examine any toxicity due to systemic delivery of TAT-Bim peptides, alkaline phosphatase (ALP), […] (AST), alanine aminotransferase (ALT), and blood urea nitrogen levels were measured.
For detection of mouse IL-1β, TNFα, MCP-1, KC, or MMP-3 in ankle extracts, sandwich ELISAs were performed according to the manufacturer's instructions (R & D Systems, Minneapolis, Minn.). The sensitivity for all cytokines was 15.6 pg/mL for IL-1β and KC, 7.813 pg/mL for TNFα and MCP-1, and 0.312 ng/mL for MMP3. ELISAs were quantitated by absorbance at 450 nm on a microplate reader (BioRad, Hercules, Calif.). Data obtained using ELISA on ankle extracts were normalized by the total protein concentration (μg/μL) for each individual ankle extract.
Mice were euthanized at seven days post-serum transfer. Ankle joints from each mouse were isolated, snap frozen, grounded into a fine powder, lysed, and examined for IL-1β, TNFα, MCP-1, KC, and MMP-3 production using an ELISA. Data are shown as μg/μL per joint. Values represent the mean±standard error, which were compared by Student's t-test.

Series [2] deals with mature neutrophils in bone marrow. The series is described as follows: Bone marrow neutrophil numbers (flow cytometry). It is filed as in vivo, mice. The conditions noted are these: as compared to saline and TAT-inactive BH3. Here is the method: Peripheral blood and bone marrow were isolated from mice following euthanasia. Total leukocyte numbers were determined using an automated hematology analyzer ABX Pentra 60 (Diamond Diagnostics, Inc, Holliston, Mass.). The red blood cells in peripheral blood were lysed and the remaining cells were fixed with BD FACS lysing solution (BD Biosciences, Pharmingen) following incubation with antibodies. Bone marrow cells were isolated by flushing Dulbecco's Modified Eagle Medium (DMEM) (Gibco, Grand Island, N.Y.) through the tibias and red blood cells were lysed with BD PharM Lyse (BD Biosciences, Pharmingen) prior to incubation with antibodies. Cells with incubated with Fc Block (BD Biosciences, Pharmingen) then stained with fluorochrome conjugated antibodies to CD45, CD11b, Gr-1, CD62L, Ly-6C, Ly-6G, CD31 (BD Biosciences, Pharmingen) or isotype control antibodies for 30 minutes. Cells were acquired on a BD LSRII (BD Biosciences, Pharmingen) using Diva Software at the Saint Louis University Core Flow Cytometry Facility. All analysis was performed using FlowJo software (Tree Star Inc.).
TAT-BH3 peptides decrease the number of neutrophils in circulation and in bone marrow. We have shown that numbers of neutrophils and macrophages are reduced in the joints of mice treated with TAT-BH3 peptides.

In another series the target is Mcl-1 (Homo sapiens, UniProt Q07820). Description: Affinity for Mcl-1. In kind it is binding. As to conditions: statement without data.
Series [3] is described as follows: Toxicity: serum ALP, AST, ALT, blood urea nitrogen and liver histology in arthritic mice. It is filed as in vivo. As for the experimental part:
as §1
Paraffin embedded ankle or liver sections were stained with hematoxylin and eosin (H&E), Safranin O and methyl green. Histopathological scoring was performed and ankle sections were evaluated by examining at least 3 sections/ankle and 3 fields/section at 400× magnification. H&E ankle sections were scored on a 0-5 scale for inflammation, with 0=normal, 1=minimal infiltration, 2=mild infiltration, 3=moderate infiltration, […], mad 5=severe infiltration. Bone erosion was scored on a 0-5 scale by viewing H&E ankle sections, with 0=no or normal bone resorption, 1=small areas of resorption, 2=more numerous areas of resorption, 3=obvious resorption, 4=full thickness defects in the bone without distortion of the profile, 5=full thickness defects in the bone with distortion of the profile. H&E ankle stained sections were scored on a 0-5 scale for pannus formation, with 0=no pannus formation, 1=minimal pannus formation, 2=mild pannus formation, 3=moderate pannus formation, 4=marked pannus formation, and 5=severe pannus formation. H&E and Safranin 0 and methyl green sections were scored on a 0-5 scale for cartilage damage, with 0=no damage, 1-2=superficial cartilage destruction, 3-4=cartilage destruction to middle zone, 5=cartilage destruction to tide mark. Polymorphonuclear (PMN) leukocyte infiltration: 0=no PMNs, 1=rare scattered PMNs, 2=more frequent scattered PMNs, 3=small clusters of PMNs, 4=larger clusters of PMNs, mad 5=sheets of PMNs (abscess). Histopathological scoring was conducted on an Olympus BX40 microscope (1000×). Photographs were taken on a Nikon microscope equipped with the Nikon digital camera DMX 1200.

Setting [4] is: seven days post-serum transfer, mean ± standard error.
The mark [5] stands for this setting: TAT-BH3 vs TAT-inactive BH3 and saline.
Where [6] appears, read: as compared to TAT-inactive BH3.

Square brackets hold non-standard residues; d marks the D form. Peptide text beside a SMILES is read from it. Orn = NCCC[C@H](N)C(=O)O

Sequence of Mcl-1 (Q07820 whole entry, species assumed): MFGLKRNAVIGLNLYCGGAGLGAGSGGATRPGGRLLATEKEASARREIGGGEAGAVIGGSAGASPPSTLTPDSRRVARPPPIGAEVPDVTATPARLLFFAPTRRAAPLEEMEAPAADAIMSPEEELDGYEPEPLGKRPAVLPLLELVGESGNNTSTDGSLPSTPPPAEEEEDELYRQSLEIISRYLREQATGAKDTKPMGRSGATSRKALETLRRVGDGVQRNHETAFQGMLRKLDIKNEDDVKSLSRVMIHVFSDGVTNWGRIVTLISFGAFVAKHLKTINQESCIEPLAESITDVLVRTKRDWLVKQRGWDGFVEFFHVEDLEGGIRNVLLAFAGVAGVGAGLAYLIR

Consider `CC[C@H](C)[C@H](NC(=O)[C@H](CCCNC(=N)N)NC(=O)[C@H](CCCNC(=N)N)NC(=O)[C@H](CC(C)C)NC(=O)[C@H](CCC(=O)O)NC(=O)[C@H](CCC(N)=O)NC(=O)[C@H](C)NC(=O)[C@@H](NC(=O)[C@H](Cc1c[nH]c2ccccc12)NC(=O)[C@@H](NC(=O)[C@H](CCC(=O)O)NC(=O)[C@H](CCCNC(=N)N)NC(=O)[C@H](CCCNC(=N)N)NC(=O)[C@H](CCCNC(=N)N)NC(=O)[C@H](CCCN)NC(=O)[C@H](CCCNC(=N)N)NC(=O)[C@H](CCCNC(=N)N)NC(=O)[C@H](CCCCN)NC(=O)[C@H](CCCCN)NC(=O)[C@H](CCCNC(=N)N)NC(C)=O)[C@@H](C)CC)[C@@H](C)CC)C(=O)NCC(=O)N[C@@H](CC(=O)O)C(=O)N[C@@H](CCC(=O)O)C(=O)N[C@@H](Cc1ccccc1)C(=O)N[C@@H](CC(N)=O)C(=O)N[C@@H](C)C(=O)N[C@@H](Cc1ccc(O)cc1)C(=O)N[C@@H](Cc1ccc(O)cc1)C(=O)N[C@@H](C)C(=O)N[C@@H](CCCNC(=N)N)C(=O)O` [TAT-BH3] (Ac-RKKRR[Orn]RRREIWIAQELRRIGDEFNAYYAR-OH), for which, in series [1] (setting [4]), the IL-1β worked out at 522 ± 127, the KC turned out to be 308 ± 78, the MCP-1 was determined as 131 ± 28 and the MMP-3 amounted to 9 ± 3. In series [1] (setting [4]), this compound returned a TNFα of 4.5 ± 0.3. In series [1] (vs saline or TAT-inactive BH3), the “change in level of TNFα” value is given as “no change”, the “decrease in level of IL-1β” value was found to be 37%, the “levels of MMP-3 reduced” value is listed as 47% and the “production of KC diminished” value worked out at 28%. Further, in series [1] (vs saline or TAT-inactive BH3), the “production of MCP-1 diminished” value turned out to be 47%. Further, in series [2], the “decrease in numbers of mature neutrophils in bone marrow” value was 50%. Further, at Mcl-1, the “affinity for Mcl-1” value is listed as “high affinity”. In addition, in series [3] (setting [5]), the ALT levels entry was “statistical difference” and the BUN levels result is given as “statistical difference”. Further, in series [3] (setting [6]), the “increase in ALP levels” value is 1.7 fold and the “increase in AST levels” value is recorded as 1.5 fold. In series [3] (as compared to saline), the “increase in ALP levels” value is listed as 1.4 fold and the “increase in AST levels” value is 1.3 fold. Moreover, the liver histology result in series [3] (liver sections of arthritic mice) is given as “no gross histologic abnormalities”.
